# Measurements from publication PMC11047712, “Synergistic Antioxidant and Anti-Inflammatory Effects of Phenolic Acid-Conjugated Glutamine–Histidine–Glycine–Valine (QHGV) Peptides Derived from Oysters (Crassostrea talienwhanensis)” (Antioxidants, 2024).
# pIC50: −log10 of the molar value.
# Experiments:
# [1] = system: collagen type I alpha 1 chain (Col1a1) mRNA; assay: Collagen I (Col1a1) mRNA level in HaCaT cells (RT-PCR); format: cell-based, human; settings: peptide 500 μM, normalized to Gapdh, n = 3
# Description: The peptide and control groups were pretreated with 500 and 0 μM of the peptide solution, respectively, for 2 h, followed by stimulation with 0.1 μg/mL of LPS for 24 h. Total cellular RNA was isolated using the RNeasy Mini Kit (Qiagen, Santa Clara, CA, USA). Total RNA was used to synthesize complementary DNA (cDNA) using the PrimeScript™ 1st strand cDNA synthesis kit (TaKaRa, Kusatsu, Japan). The sequences of oligonucleotide primers for amplifying inducible nitric oxide synthase (iNos), cyclooxygenase-2 (Cox-2), and collagen type I alpha 1 chain (Col1a1) synthesized from Bioneer (Daejeon, Republic of Korea) and glyceraldehyde-3-phosphate dehydrogenase (Gapdh) synthesized from Macrogen (Seoul, Republic of Korea) are listed in Table 1. […] The mRNA levels of iNos, Cox-2, and Col1a1 were normalized to that of Gapdh, which is a housekeeping gene. The mRNA levels were quantified using the 2^-ddCt method based on the Ct values.
# [2] = ABTS radical scavenging activity test; format: biochemical; settings: for Anti-oxidant Rank (ABTS radical scavenging activity rank) / pIC50: Table S1; for Anti-oxidant Rank (ABTS radical scavenging activity rank): rank by IC50, 1 = most active; for ABTS antioxidant activity (in words): various concentrations between 0.000001 and 1 mM; for pIC50: tested 0.000001-1 mM, calculated by GraphPad Prism 5, unit inferred; for pIC50 / ABTS radical scavenging activity: 5 min at room temperature, absorbance 734 nm; for ABTS radical scavenging activity: 0.01 mM, n = 3
# Description: The ABTS radical cation solution was prepared by mixing 1 mL of a 14 mM ABTS solution and 1 mL of 4.9 mM potassium persulfate. The mixture reacted in the dark at room temperature for 16 h. The ABTS solution was diluted with PBS (1:50, v/v), and 190 μL of it reacted with 10 μL of the sample solution in a 96-well plate at room temperature for 5 min. The absorbance at 734 nm was measured using a SpectraMax iD3 microplate reader (Molecular Devices, San Jose, CA, USA), and the ABTS radical scavenging activity rate was calculated using the following equation:ABTS radical scavenging activity (%) = 1 − (absorbance of sample/absorbance of water) × 100
# [3] = system: collagen I (COL1A1) protein; assay: Collagen I (COL1A1) protein level in HaCaT cells (Western blot); format: cell-based, human; settings: peptide 500 µM, 24 h, Western blot densitometry normalized to GAPDH, n = 3
# Description: (§1) HaCaT (3.0 × 10^5 cells/well) and RAW 264.7 (1.5 × 10^5 cells/well) cells were seeded in the wells of a six-well plate. HaCaT and RAW 264.7 cells were treated with the peptide solutions (500 µM) for 24 and 2 h, respectively, and then stimulated with LPS (0.1 μg/mL) for 15 min. The cells were then washed with cold PBS and lysed in a cold lysis buffer. Cell debris was removed after centrifugation at 12,000× g for 30 min at 4 °C. Protein concentration was determined using the bicinchoninic acid (BCA) protein assay. The four-times-concentrated protein-denaturing buffer (1.25 M Tris-HCl (pH 6.8), glycerol, SDS, 2-mercaptoethanol, and 0.4% bromophenol blue) was added to the cell lysate and the mixture was boiled at 100 °C for 5 min. Proteins were separated by electrophoresis on 10% (for MAPKs) or 12% (for collagen) sodium dodecyl sulfate-polyacrylamide gel and electroblotted onto polyvinylidene fluoride membranes. The membranes were blocked with 5% skimmed milk in Tris-buffered saline–Tween (TBS-T) at room temperature for 1 h. After washing, the membranes were incubated overnight in respective primary antibody solutions (anti-phospho-ERK, anti-phospho-JNK, anti-phospho-p38, anti-collagen I, anti-GAPDH or anti-β-actin antibodies) at 4 °C. The membranes were washed with TBS-T and incubated with a horseradish peroxidase-conjugated secondary antibody solution for 1 h at room temperature. They were washed again with TBS-T and PBS and developed using an enhanced chemiluminescence reagent. Images of the immunoblots were scanned with an iBright™ CL1500 Imaging System (Thermo Fisher Scientific, Waltham, MA, USA). The band intensities of phospho-ERK, phospho-JNK, phospho-p38, and collagen I proteins were quantified by densitometric analysis using the ImageJ software 1.8.0 (National Institutes of Health, NIH, Bethesda, MD, USA). To normalize for protein loading, antibodies against β-actin and GAPDH were used, and phospho-ERK 1/2, phospho-JNK, and phospho-p38 phosphorylation levels were expressed relative to those of ERK, p38, and JNK, respectively. The levels of collagen I were normalized to those of GAPDH. Images of raw Western blots are shown in the Supplementary Data.
# [4] = system: inducible nitric oxide synthase (iNos) mRNA; assay: iNos mRNA expression in LPS-induced RAW 264.7 cells (qRT-PCR); format: cell-based, murine; settings: peptide 500 μM pretreated 2 h, LPS 0.1 μg/mL 24 h, normalized to Gapdh, n = 3
# Description: (§2) The peptide and control groups were pretreated with 500 and 0 μM of the peptide solution, respectively, for 2 h, followed by stimulation with 0.1 μg/mL of LPS for 24 h. Total cellular RNA was isolated using the RNeasy Mini Kit (Qiagen, Santa Clara, CA, USA). Total RNA was used to synthesize complementary DNA (cDNA) using the PrimeScript™ 1st strand cDNA synthesis kit (TaKaRa, Kusatsu, Japan). […] The mRNA levels of iNos, Cox-2, and Col1a1 were normalized to that of Gapdh, which is a housekeeping gene. The mRNA levels were quantified using the 2^-ddCt method based on the Ct values.
# HaCaT cells = assay: Cell viability (MTT assay) in HaCaT cells; format: cell-based, human; settings: 0.032-500 µM, 24 h
# Description: Cell viability was assessed using an MTT assay. HaCaT cells (1.0 × 10^4 cells/mL) were seeded in a 96-well plate and cultured for 24 h. Thereafter, the cells were treated with the peptide solution (0–500 µM) for 24 h. […] The MTT solution was prepared by dissolving it in phosphate-buffered saline (PBS) at a concentration of 5 mg/mL. 10 μL of the prepared MTT solution was added to each well, and the plate was incubated for 4 h. After removing the culture medium, 200 μL of dimethyl sulfoxide (DMSO) was added to each well to solubilize any deposited formazan. The absorbance at 560 nm was measured using an Epoch microplate Spectrophotometer (BioTek, Winooski, VT, USA).
# [5] = system: cyclooxygenase-2 (Cox-2) mRNA; assay: Cox-2 mRNA expression in LPS-induced RAW 264.7 cells (qRT-PCR); format: cell-based, murine; settings: peptide 500 μM pretreated 2 h, LPS 0.1 μg/mL 24 h, normalized to Gapdh, n = 3
# Description: as §2
# phospho-JNK = assay: LPS-induced phosphorylation of JNK in RAW 264.7 cells (Western blot); format: cell-based, murine; settings: peptide 500 µM 2 h, LPS 0.1 μg/mL 15 min, densitometry relative to JNK, n = 3
# Description: as §1, with “HaCaT and RAW 264.7 cells were treated with the peptide solutions (500 µM) for 24 and 2 h, respectively, and then stimulated with LPS (0.1 μg/mL) for 15 min.” left out, “The four-times-concentrated protein-denaturing buffer (1.25 M Tris-HCl (pH 6.8), glycerol, SDS, 2-mercaptoethanol, and 0.4% bromophenol blue) was added to the cell lysate and the mixture was boiled at 100 °C for 5 min. Proteins were separated by electrophoresis on 10% (for MAPKs) or 12% (for collagen) sodium dodecyl sulfate-polyacrylamide gel and electroblotted onto polyvinylidene fluoride membranes.” left out, “To normalize for protein loading, antibodies against β-actin and GAPDH were used, and phospho-ERK 1/2, phospho-JNK, and phospho-p38 phosphorylation levels were expressed relative to those of ERK, p38, and JNK, respectively.” left out
# phospho-ERK 1/2 = assay: LPS-induced phosphorylation of ERK in RAW 264.7 cells (Western blot); format: cell-based, murine; settings: peptide 500 µM 2 h, LPS 0.1 μg/mL 15 min, densitometry relative to ERK, n = 3
# Description: as §1
# phospho-p38 = assay: LPS-induced phosphorylation of p38 in RAW 264.7 cells (Western blot); format: cell-based, murine; settings: peptide 500 µM 2 h, LPS 0.1 μg/mL 15 min, densitometry relative to p38, n = 3
# Description: HaCaT (3.0 × 10^5 cells/well) and RAW 264.7 (1.5 × 10^5 cells/well) cells were seeded in the wells of a six-well plate. HaCaT and RAW 264.7 cells were treated with the peptide solutions (500 µM) for 24 and 2 h, respectively, and then stimulated with LPS (0.1 μg/mL) for 15 min. The cells were then washed with cold PBS and lysed in a cold lysis buffer. Cell debris was removed after centrifugation at 12,000× g for 30 min at 4 °C. Protein concentration was determined using the bicinchoninic acid (BCA) protein assay. The four-times-concentrated protein-denaturing buffer (1.25 M Tris-HCl (pH 6.8), glycerol, SDS, 2-mercaptoethanol, and 0.4% bromophenol blue) was added to the cell lysate and the mixture was boiled at 100 °C for 5 min. Proteins were separated by electrophoresis on 10% (for MAPKs) or 12% (for collagen) sodium dodecyl sulfate-polyacrylamide gel and electroblotted onto polyvinylidene fluoride membranes. The membranes were blocked with 5% skimmed milk in Tris-buffered saline–Tween (TBS-T) at room temperature for 1 h. […] The band intensities of phospho-ERK, phospho-JNK, phospho-p38, and collagen I proteins were quantified by densitometric analysis using the ImageJ software 1.8.0 (National Institutes of Health, NIH, Bethesda, MD, USA). […]
# [6] = DPPH radical scavenging activity test; format: biochemical; settings: various concentrations; 0.1 mM DPPH, 30 min in the dark at room temperature, absorbance 517 nm
# Description: The DPPH method is based on a mechanism similar to the ABTS method. […] In a 96-well plate, 100 μL of the DPPH solution and 100 μL of the sample were treated and incubated at room temperature in the dark for 30 min. Absorbance at 517 nm was then measured using a SpectraMax iD3 microplate reader (Molecular Devices, San Jose, CA, USA). The solvents used for the samples were methanol for peptide samples and ethanol for phenolic acid samples.
# [7] = system: intracellular ROS in RAW 264.7 cells; assay: LPS-induced intracellular ROS, DCFH-DA fluorescence, in RAW 264.7 cells; format: cell-based, murine; settings: peptides and carnosine 500 μM pretreated 2 h, then LPS 0.1 μg/mL 24 h, n = 3
# Description: RAW 264.7 cells (7.5 × 10^4 cells/mL) were seeded on sterile cover slips placed in the wells of a 12-well plate and cultured for 24 h. The cells were pretreated with peptide solutions (500 μM) and carnosine (500 μM) for 2 h and stimulated with LPS (0.1 μg/mL) for 24 h. Subsequently, they were treated with a 10 μM DCFH-DA solution for 30 min and washed with PBS. The washed cells were fixed with a 4% paraformaldehyde solution for 5 min, and intracellular ROS fluorescence was observed using a DMi8 inverted microscope (Leica, Wetzlar, Germany).
Molecule,Anti-oxidant Rank (ABTS radical scavenging activity rank) [2],increase of collagen I protein level [3] [%],reduction of LPS-induced iNos mRNA level [4],reduction of LPS-induced Cox-2 mRNA level [5],pIC50 [2],ABTS radical scavenging activity [2] [%],other results
"N-(1-oxohexadecyl) glycyl-L-histidyl-L-lysine [PTP-1, reference compound]",–,–,–,–,–,–,increase of collagen I mRNA level compared with the negative control group [1]: 135%
QHGV [glutamine–histidine–glycine–valine],8,147,reduced,reduced,–,–,ABTS antioxidant activity (in words) [2]: did not exhibit high antioxidant activity; cytotoxicity (in words) (HaCaT cells): no cytotoxicity; increase of collagen I mRNA level compared with the negative control group [1]: 26%
"γ-L-glutamyl-L-cysteinyl-glycine [Glutathione, reference compound]",3,–,–,–,4.83,–,–
feruloyl-QHGV [Fe-QHGV],6,457,did not significantly affect,11%,4.75,31,decrease of p-JNK level (phospho-JNK): 23%
"O=C1O[C@H]([C@@H](O)CO)C(O)=C1O [L-ascorbic acid, reference compound]",7,–,–,–,4.62,20,–
caffeoyl-QHGV [Ca-QHGV],5,316,26%,8%,4.78,33,decrease of p-ERK level (phospho-ERK 1/2): 9%; decrease of p-p38 level (phospho-p38): 5%; decrease of p-JNK level (phospho-JNK): 10%
"O=C(O)c1cc(O)c(O)c(O)c1 [Gallic acid, gallic acid, reference compound]",1,–,–,–,5.60,–,ABTS antioxidant activity (in words) [2]: highest antioxidant activity
vanilloyl-QHGV [Va-QHGV],4,163,did not significantly affect,16%,4.79,34,decrease of p-ERK level (phospho-ERK 1/2): 24%; DPPH radical scavenging activity (in words) [6]: did not exhibit antioxidant effects
"C[C@@H]1C[C@H]2[C@@H]3CCC4=CC(=O)C=C[C@]4(C)[C@@]3(F)[C@@H](O)C[C@]2(C)[C@@]1(O)C(=O)CO [DEX, Dexamethasone, reference compound]",–,–,approximately 80%,~91%,–,–,decrease of p-ERK level (phospho-ERK 1/2): markedly reduced; decrease of p-p38 level (phospho-p38): markedly reduced; decrease of p-JNK level (phospho-JNK): markedly reduced
sinapoyl-QHGV [Si-QHGV],–,363,did not significantly affect,15%,–,27,decrease of p-ERK level (phospho-ERK 1/2): 5%
"β-alanyl-L-histidine [carnosine, reference compound]",–,–,no significant effect,no significant effect,–,–,–
"glycyl-L-histidyl-L-lysine-Cu (II) [GHK-Cu, reference compound]",–,–,45%,24%,–,–,–
galloyl-QHGV [Ga-QHGV],2,354,60%,22%,5.34,74,cytotoxicity (in words) (HaCaT cells): no cytotoxicity; decrease of p-JNK level (phospho-JNK): 18%; increase of collagen I mRNA level compared with the negative control group [1]: 140%; decrease of intracellular ROS levels compared to the LPS-treated group [7]: reduced LPS-induced ROS levels to the greatest extent
"COc1cc(C(=O)O)ccc1O [vanillic acid, reference compound]",–,–,–,–,–,–,DPPH radical scavenging activity (in words) [6]: weak antioxidant activity
